Measured values published in patent US6534546B1 (Chugai Seiyaku Kabushiki Kaisha, priority 1994, dated 2003).
Structures can show the parent of a compound that is named as a salt. Where two headings read alike, the source gives them in different places.

Columns and labels:
E-cNOS (Type 3) = target: T1, E-cNOS (Type 3) (Bos taurus, UniProt P29473); assay: biochemical
T1 construct: the resulting supernatant was used as the crude enzyme sample of E-cNOS; endogenous in cells; host or cells: CPAE (cow pulmonary arterial endothelium cells), 1% Triton X-100 extract, 100,000 x g supernatant
Description: The crude enzyme sample of E-cNOS was prepared by the following procedure. A cow pulmonary arterial endothielium cell (CPAE) was cultured in a MEM medium containing 20% FBS. […] A suitable amount of Ca- and Mg-free phosphate buffer (pH 7.4) was added to the precipitating cells and they were centrifuged at 1,000 rpm for 10 min. The same step was repeated to wash the cells which, upon addition of 50 mM Tris-HCl (pH 7.4) containing 1% Triton X-100 and 1 mM DTT, were left to stand in ice for 1 h. Subsequently, the mixture was homogenized for 3 min and kept in ice for 30 min with occasional stirring. Finally, the mixture was centrifuged at 100,000×g for 60 min and the resulting supernatant was used as the crude enzyme sample of E-cNOS.
The reaction was started by addition of L-[^3H]arginine and following incubation at 37° C. for 10 min, the reaction was terminated by addition of 2 ml of 50 mM Tris-HCl (pH 5.5) containing 1 mM EDTA and placing the mixture on ice. The reaction solution was passed through a cation-exchange resin column (Dowex AG50WX-8, Na^+ form, 3.2 ml) to separate the reaction product L-[^3H]citrulline from the unreacted residual substrate L-[^3H]arginine. The eluate was combined with another eluate resulting from the passage of a given amount of distilled water through the column and put into a minivial for recovery of L-[^3H]citrulline. Thereafter, a scintillation fluid was added and the contained radioactivity was measured with a liquid scintillation counter to determine the amount of L-[^3H]citrulline.
The activity of N-cNOS or E-cNOS was determined by subtracting the activity as detected in the absence of CaCl2 and calmodulin from the activity as detected in the presence of CaCl2 and calmodulin. […] The protein concentration of each crude enzyme sample was determined with a micro-assay kit of Biorad Co. Each experiment was conducted in a duplicate.

iNOS (Type 2) = iNOS (Type 2) (Rattus norvegicus, UniProt Q06518); assay: biochemical; type: biochemical; settings: for IC50: read-out: IC50 value, iNOS (Type 2)
[1] = mean of one to four independent experiments, crude enzyme, 100 nM L-[3H]arginine, without CaCl2 and calmodulin
[2] = mean of one to four independent experiments, crude enzyme, 100 nM L-[3H]arginine, read-out: IC50 value, E-cNOS (Type 3)

iNOS (Type 2), sequence (Q06518 whole entry, looked up): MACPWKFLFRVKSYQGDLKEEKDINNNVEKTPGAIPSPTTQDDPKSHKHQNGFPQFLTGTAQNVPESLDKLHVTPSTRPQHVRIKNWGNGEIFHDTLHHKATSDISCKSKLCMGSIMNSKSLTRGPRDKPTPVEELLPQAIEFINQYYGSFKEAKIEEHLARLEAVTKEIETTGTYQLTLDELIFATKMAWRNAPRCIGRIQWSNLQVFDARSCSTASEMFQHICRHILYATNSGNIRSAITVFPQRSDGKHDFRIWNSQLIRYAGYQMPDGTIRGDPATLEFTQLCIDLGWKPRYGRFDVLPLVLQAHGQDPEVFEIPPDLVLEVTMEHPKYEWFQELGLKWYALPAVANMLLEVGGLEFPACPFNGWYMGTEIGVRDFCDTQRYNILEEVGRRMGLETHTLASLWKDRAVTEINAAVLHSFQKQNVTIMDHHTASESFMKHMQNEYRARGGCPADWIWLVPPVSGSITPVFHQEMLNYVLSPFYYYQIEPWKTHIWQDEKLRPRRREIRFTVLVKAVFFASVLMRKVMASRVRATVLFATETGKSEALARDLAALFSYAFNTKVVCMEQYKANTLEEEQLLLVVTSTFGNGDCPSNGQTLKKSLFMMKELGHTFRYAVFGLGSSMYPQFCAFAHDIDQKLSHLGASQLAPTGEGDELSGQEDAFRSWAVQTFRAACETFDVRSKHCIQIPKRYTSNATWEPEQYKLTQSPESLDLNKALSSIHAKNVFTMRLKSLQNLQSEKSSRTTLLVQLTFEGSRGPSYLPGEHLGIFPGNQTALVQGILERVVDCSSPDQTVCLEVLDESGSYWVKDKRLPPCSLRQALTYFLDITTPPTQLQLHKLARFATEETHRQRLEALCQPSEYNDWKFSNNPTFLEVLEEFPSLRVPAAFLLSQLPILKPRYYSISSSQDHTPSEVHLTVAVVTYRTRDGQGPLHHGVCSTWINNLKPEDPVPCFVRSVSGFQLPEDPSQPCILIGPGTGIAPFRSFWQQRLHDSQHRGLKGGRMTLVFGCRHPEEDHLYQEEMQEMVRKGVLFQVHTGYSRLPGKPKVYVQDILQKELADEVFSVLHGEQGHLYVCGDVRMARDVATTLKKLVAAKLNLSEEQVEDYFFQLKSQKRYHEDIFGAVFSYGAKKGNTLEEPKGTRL
T1 sequence (P29473 2-1205): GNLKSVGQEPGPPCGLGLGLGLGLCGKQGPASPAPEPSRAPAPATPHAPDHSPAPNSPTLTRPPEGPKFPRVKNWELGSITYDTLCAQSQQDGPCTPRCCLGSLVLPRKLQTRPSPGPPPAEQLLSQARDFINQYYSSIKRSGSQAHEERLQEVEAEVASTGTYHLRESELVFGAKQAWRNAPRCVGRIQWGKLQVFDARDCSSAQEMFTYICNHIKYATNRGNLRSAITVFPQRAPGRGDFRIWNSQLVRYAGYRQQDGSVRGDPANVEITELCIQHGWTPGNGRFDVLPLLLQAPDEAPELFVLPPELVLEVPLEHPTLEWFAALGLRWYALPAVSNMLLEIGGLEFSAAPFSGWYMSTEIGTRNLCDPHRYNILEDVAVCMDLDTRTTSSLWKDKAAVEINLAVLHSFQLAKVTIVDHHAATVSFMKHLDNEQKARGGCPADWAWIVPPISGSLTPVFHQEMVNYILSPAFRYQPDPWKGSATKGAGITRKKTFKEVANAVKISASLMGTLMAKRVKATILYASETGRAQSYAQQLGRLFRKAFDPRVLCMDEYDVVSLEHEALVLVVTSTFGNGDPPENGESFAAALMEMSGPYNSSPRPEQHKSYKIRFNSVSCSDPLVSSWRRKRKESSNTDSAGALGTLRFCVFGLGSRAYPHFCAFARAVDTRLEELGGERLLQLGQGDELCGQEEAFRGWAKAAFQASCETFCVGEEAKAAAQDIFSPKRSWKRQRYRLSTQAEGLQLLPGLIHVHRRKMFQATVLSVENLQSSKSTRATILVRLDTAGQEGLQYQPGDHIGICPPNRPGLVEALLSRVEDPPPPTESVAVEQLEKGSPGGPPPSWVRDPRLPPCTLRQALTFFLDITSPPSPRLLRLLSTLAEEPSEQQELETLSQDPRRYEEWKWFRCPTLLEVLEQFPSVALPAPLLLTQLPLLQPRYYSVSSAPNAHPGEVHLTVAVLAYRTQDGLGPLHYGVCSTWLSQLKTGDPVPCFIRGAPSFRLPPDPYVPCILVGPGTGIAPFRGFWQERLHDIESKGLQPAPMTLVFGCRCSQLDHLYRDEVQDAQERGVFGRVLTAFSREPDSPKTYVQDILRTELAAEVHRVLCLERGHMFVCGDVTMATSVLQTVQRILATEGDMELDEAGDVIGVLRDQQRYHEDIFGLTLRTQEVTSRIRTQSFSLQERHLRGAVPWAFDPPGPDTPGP

Structure (SMILES) | IC50 (E-cNOS (Type 3); [2]) | other results
CCSC(=N)Nc1ccc(CCN)c(OC)c1 [Example 482, N-(2-(4-(S-ethylisothioureido)-2-methoxyphenyl)ethyl)amine dihydrochloride] | – | IC50 (E-cNOS (Type 3)): 1990 nM
N=C(Nc1ccc(CCN)cc1)N[N+](=O)[O-] [Example 54, N-(4-(N′-nitroguanidino)phenylethyl)amine] | – | IC50 (iNOS (Type 2); [1]): 5020 nM
CCSC(=N)Nc1cccc(C2(N)CCCCC2)c1 [Example 144, N-(1-(3-(S-ethylisothioureido)phenyl)cyclohexyl)amine dihydrochloride] | – | IC50 (E-cNOS (Type 3)): 898 nM
CCN=C(N)Nc1ccc(CCN)cc1 [Example 528, N-(2-(4-(N′-ethylguanidino)phenyl)ethyl)amine dihydrochloride] | 436 nM | –
CN(C)Cc1cccc(NC(N)=N[N+](=O)[O-])c1 [Example 39, N-(3-(N′-nitroguanidino)phenylmethyl)dimethylamine acetate] | – | IC50 (iNOS (Type 2); [1]): 22900 nM
CCSC(=N)Nc1ccc(C(CN)C(=O)OC)cc1 (centres unmarked) [Example 226, 3-amino-2-(4-(S-ethylisothioureido)phenyl)propionic acid methyl ester dihydrochloride] | 1440 nM | –
CCN(C)C(=N)Nc1cccc(CN)c1 [Example 305, N-(3-(N′-ethyl-N′-methylguanidino)phenylmethyl)amine dihydrochloride] | 1710 nM | –
CN=C(N)Nc1cccc(CN)c1 [Example 367, N-(3-(N′-methylguanidino)phenylmethyl)amine dihydrochloride] | 3710 nM | –
CCN=C(N)Nc1ccc(N(C)CC)c(CN)c1 [Example 285, N-(5-(N′-ethylguanidino)-2-(N-ethyl-N-methyl-amino)phenylmethyl)amine trihydrochloride] | 7310 nM | –
CCNc1ccc(NC(=N)SCC)cc1CN(C(=O)OC(C)(C)C)C(=O)OC(C)(C)C [Example 458, N-(2-ethylamino-5-(S-ethylisothioureido)phenylmethyl)iminodicarboxylic acid di-t-butyl ester] | 4100 nM | –
NCc1cc(NC(N)=N[N+](=O)[O-])ccc1OCc1ccccc1 [Example 341, N-(2-benzyloxy-5-(N′-nitroguanidino)phenylmethyl)amine hydrochloride] | 874 nM | –
CCSC(=N)Nc1ccc(NCc2ccccc2)c(CN)c1 [Example 438, N-(2-benzylamino-5-(S-ethylisothioureido)phenylmethyl)amine trihydrochloride] | 6950 nM | –
N=C(Nc1cccc(CN)c1)N[N+](=O)[O-] [Example 34, N-(3-(N′-nitroguanidino)phenylmethyl)amine] | – | IC50 (iNOS (Type 2); mean of one to four independent experiments, LPS-treated rat lung crude enzyme): 6760 nM
CCN=C(N)Nc1cccc(CNC)c1 [Example 376, N-(3-(N′-ethylguanidino)phenylmethyl)methylamine dihydrochloride] | 339 nM | –
CCN=C(N)Nc1cccc(C2(N)CCC2)c1 [Example 238, N-(1-(3-(N′-ethylguanidino)phenyl)cyclobutyl)amine dihydrochloride] | 1160 nM | –
CCSC(=N)Nc1cccc(C(C)NC)c1 (centres unmarked) [Example 112, N-(1-(3-(S-ethylisothiourido)phenyl)ethyl)methylamine dihydrochloride] | 408 nM | –
NC(=N[N+](=O)[O-])Nc1cccc(C2(N)CCCCC2)c1 [Example 169, N-(1-(3-(N′-nitroguanidino)phenyl)cyclohexyl)amine hydrochloride] | – | IC50 (E-cNOS (Type 3)): 41.5 nM
CCSC(=N)Nc1ccc(F)c(CN)c1 [Example 317, N-(5-(S-ethylisothioureido)-2-fluorophenylmethyl)amine dihydrochloride] | 239 nM | –
CCN=C(N)Nc1cccc(C(C)(C)N)c1 [Example 300, N-(1-(3-(N′-ethylguanidino)phenyl)-1-methylethyl) amine dihydrochloride] | 492 nM | –
CSC(=N)Nc1cccc(C2(N)CCCC2)c1 [Example 151, N-(1-(3-(S-methylisothioureido)phenyl)cyclopentyl)amine dihydrochloride] | 262 nM | –
CCSC(=N)Nc1cccc(CN)c1.Cl.Cl [Example 28, N-(3-(S-ethylisothioureido)phenylmethyl)amine dihydrochloride] | – | iNOS inhibitory potency compared with the existing NOS inhibitors (L-MIN) (iNOS (Type 2); conclusion from Tables 49, 50 and 51): more potent in inhibiting iNOS than L-MIN; IC50 (iNOS (Type 2); [1]): 32.7 nM
CCN=C(N)Nc1cccc(CN(C)C)c1 [Example 374, N-(3-(N′-ethylguanidino)phenylmethyl)dimethylamine dihydrochloride] | 1290 nM | –
CCN=C(N)Nc1cccc(CCN)c1 [Example 543, N-(3-(N′-ethylguanidino)phenylethyl)amine dihydrochloride] | 3120 nM | –
CCSC(=N)Nc1ccc(C(C)(C)CN)cc1 [Example 185, N-(2-(4-(S-ethylisothioureido)phenyl)-2-methylpropyl)amine dihydrochloride] | – | IC50 (E-cNOS (Type 3); mean of one to four independent experiments, CPAE cell crude enzyme, read-out: IC50 value, E-cNOS (Type 3)): 3170 nM
NC(=N[N+](=O)[O-])Nc1cccc(C2(N)CCCC2)c1 [Example 171, N-(1-(3-(N′-nitroguanidino)phenyl)cyclopentyl)amine hydrochloride] | 29.2 nM | –

Structure (SMILES) | IC50 (E-cNOS (Type 3); [2]) | other results
CCSC(=N)Nc1ccc(OC)c(CN)c1OC [Example 298, N-(2,6-dimethoxy-3-(S-ethylisothioureido)phenylmethyl)amine dihydrochloride] | 4140 nM | –
CCSC(=N)Nc1cccc(CNC)c1C [Example 411, N-(3-(S-ethylisothioureido)-2-methylphenylmethyl)methylamine dihydrochloride] | 341 nM | –
CSC(=N)Nc1cccc(C2(N)CCC2)c1 [Example 160, N-(1-(3-(S-methylisothioureido)phenyl)cyclobutyl)amine dihydrochloride] | 477 nM | –
N=C(NCCC[C@H](N)C(=O)O)NC1CC1 [L-CPA, N^G-cyclpropyl-L-arginine, reference compound] | 987 nM | –
CCN=C(N)Nc1cccc(C2(N)CCCC2)c1 [Example 236, N-(1-(3-(N′-ethylguanidino)phenyl)cyclopentyl)amine dihydrochloride] | 325 nM | –
CCSC(=N)Nc1cccc(C(C)N)c1 (centres unmarked) [Example 175, N-(1-(3-(S-ethylisothioureido)phenyl)ethyl)amine dihydrochloride] | 200 nM | –
CN(C)c1ccc(NC(N)=N[N+](=O)[O-])cc1CN [Example 281, N-(2-dimethylamino-5-(N′-nitroguanidino)phenylmethyl)amine dihydrochloride] | 1620 nM | –
CNC(=N)NCCC[C@H](N)C(=O)O [L-NMMA, N^G-monomethyl-L-arginine, reference compound] | – | IC50 (iNOS (Type 2)): 3480 nM
CSC(=N)Nc1cccc(C2(N)CCCCC2)c1 [Example 142, N-(1-(3-(S-methylisothioureido)phenyl)cyclohexyl)amine dihydrochloride] | – | IC50 (E-cNOS (Type 3)): 663 nM
CCSC(=N)Nc1cccc(C(N)CC)c1 (centres unmarked) [Example 177, N-(1-(3-(S-ethylisothioureido)phenyl)propyl)amine dihydrochloride] | 510 nM | –
CCC(N)c1cccc(NC(N)=N[N+](=O)[O-])c1 (centres unmarked) [Example 21, N-(1-(3-(N′-nitroguanidino)phenyl)propyl)amine hydrochloride] | – | IC50 (iNOS (Type 2); [1]): 2610 nM
CCN=C(N)Nc1cccc(CN)c1C [Example 533, N-(3-(N′-ethylguanidino)-2-methylphenylmethyl)amine dihydrochloride] | 3770 nM | –
CCN=C(N)Nc1ccc(CCN)c(F)c1 [Example 258, N-(2-(4-(N′-ethylguanidino)-2-fluorophenyl)ethyl)amine dihydrochloride] | – | IC50 (E-cNOS (Type 3)): 1090 nM
CCN=C(N)Nc1cccc(C2(N)CCCCC2)c1 [Example 234, N-(1-(3-(N′-ethylguanidino)phenyl)cyclohexyl)amine dihydrochloride] | – | IC50 (E-cNOS (Type 3)): 1170 nM
CCSC(=N)Nc1cccc(CN(C)C)c1 [Example 372, N-(3-(S-ethylisothioureido)phenylmethyl)dimethylamine] | 360 nM | –
CCSC(=N)Nc1ccc(CC(C)(C)N)cc1 [Example 193, N-(1,1-dimethyl-2-(4-(S-ethylisothioureido)phenyl)ethyl)amine dihydrochloride] | – | IC50 (E-cNOS (Type 3)): 1540 nM
CCSC(=N)Nc1cccc(C2(N)CCCC2)c1 [Example 153, N-(1-(3-(S-ethylisothioureido)phenyl)cyclopentyl)amine dihydrochloride] | 423 nM | –
CCSC(=N)Nc1cccc(CN)c1Cl [Example 137, N-(2-chloro-3-(S-ethylisothioureido)phenylmethyl)amine dihydrochloride] | 485 nM | –
CCSC(=N)Nc1cccc(C2(N)CCC2)c1 [Example 162, N-(1-(3-(S-ethylisothioureido)phenyl)cyclobutyl)amine dihydrochloride] | 576 nM | –
CCSC(=N)Nc1ccc(N(C)CC)c(CN)c1 [Example 288, N-(5-(S-ethylisothioureido)-2-(N-ethyl-N-methylamino)phenylmethyl)amine trihydrochloride] | 1260 nM | –
CCSC(=N)Nc1cccc(CNC)c1 [Example 47, N-(3-(S-ethylisothioureido)phenylmethyl)methylamine dihydrochloride] | 72.9 nM | –
CCSC(=N)Nc1cccc(CNN)c1 [Example 355, 3-(S-ethylisothioureido)phenylmethylhydrazine trihydrochloride] | 662 nM | –
N=C(Nc1cccc(C2(N)CCC2)c1)N[N+](=O)[O-] [Example 173, N-(1-(3-(N′-nitroguanidino)phenyl)cyclobutyl)amine hydrochoride] | 24.1 nM | –
CCSC(=N)Nc1cccc(C2(N)CC2)c1 [Example 167, N-(1-(3-(S-ethylisothioureido)phenyl)cyclopropyl)amine dihydrochloride] | 366 nM | –
